From patent US6515173B1, “Inhibitors of the ICE/ced-3 family of cysteine proteases” (Idun Pharmaceuticals, Inc., priority 2000, dated 2003)
Peptide text beside a SMILES is read from it. * marks the point of attachment. Cbz = O=C(OCc1ccccc1)*; CH2F = FC*

Assays:
Format in all cases: biochemical
Details in all cases: continuous assay sixty minutes, reaction initiated by adding enzyme to substrate-inhibitor mixture; Ki by simulating AMC formation (Equation 1)
MCH-5 = MCH-5 (Homo sapiens, UniProt Q14790); experiment: Ki determination, ICE/ced-3 family protease fluorescence assay (MCH-5)
Experimental: (§1) Fluorescence enzyme assays detecting the activity of the compounds of Formula I utilizing the recombinant ICE and CPP32 enzymes are performed essentially according to Thorrberry et al. (Nature, 356:768:774 (1992)) and Nicholson et al. (Nature, 376:37-43 (1995)) respectively, (herein incorporated by reference) in 96 well microtiter plates. The substrate is Acetyl-Tyr-Val-Ala-Asp-amino-4-methylcoumarin (AMC) (SEQ ID NO: 1) for the ICE assay and Acetyl-Asp-Glu-Val-Asp-amino-4-methylcoumarin (SEQ ID NO: 2) for the CPP32, Mch2, Mch3 and Mch5 assays. Enzyme reactions are run in ICE buffer (25 mM HEPES, 1 mM EDTA, 0.1% CHAPS, 10% sucrose, pH 7.5) containing 2 mM DTT at room temperature in duplicate. The assays are performed by mixing the following components:
(§2) 50 μL ICE, Mch2, Mch5, CPP32 (18.8, 38, 8.1 and 0.153 nM concentrations, respectively) or Mch3 (1 unit) enzyme in ICE buffer containing either 8.0 (ICE, Mch2, Mch3, CPP32) or 20 (Mch5) mM DTT;
(§3) 50 μL compound of Formula I or ICE buffer (control); and […]
(§4) […] Fluorescent AMC product formation is monitored for one hour at room temperature by measuring the fluorescence emission at 460 nm using an excitation wavelength of 360 nm. […]
(§5) The product formation at time t may be expressed as: [formula] […]
(§6) The activity of a representative compound of this invention (i.e., Compound No. 1) evaluated according to the procedures disclosed in Example 1. […]

mICE = molecular target: T1, mICE (Mus musculus, UniProt P29452); experiment: Ki determination, ICE/ced-3 family protease fluorescence assay (mICE)
T1 sequence (P29452 123-296 limits assumed): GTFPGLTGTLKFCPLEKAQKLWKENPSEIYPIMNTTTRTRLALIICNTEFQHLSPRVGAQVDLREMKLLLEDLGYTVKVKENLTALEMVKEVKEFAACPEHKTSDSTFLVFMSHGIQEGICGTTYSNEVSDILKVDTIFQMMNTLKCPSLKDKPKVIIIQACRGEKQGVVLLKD
T1 sequence (P29452 315-402 limits assumed): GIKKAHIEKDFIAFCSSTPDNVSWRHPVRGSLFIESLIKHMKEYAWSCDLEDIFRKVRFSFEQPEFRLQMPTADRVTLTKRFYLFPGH
Experimental: as §1, §2, §3, §4, §5, §6

CPP32 = molecular target: T2, CPP32 (Homo sapiens, UniProt P42574); experiment: Ki determination, ICE/ced-3 family protease fluorescence assay (CPP32)
T2 sequence (P42574 29-175 limits assumed): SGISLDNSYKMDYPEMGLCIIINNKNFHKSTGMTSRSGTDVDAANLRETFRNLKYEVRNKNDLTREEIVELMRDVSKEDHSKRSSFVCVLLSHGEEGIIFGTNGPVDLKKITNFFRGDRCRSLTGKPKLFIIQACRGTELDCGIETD
T2 sequence (P42574 176-277 limits assumed): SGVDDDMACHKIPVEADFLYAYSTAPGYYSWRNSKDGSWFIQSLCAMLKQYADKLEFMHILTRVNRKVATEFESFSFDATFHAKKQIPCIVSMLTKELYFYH
Experimental: as §1, §2, §3, §4, §5, §6

MCH-2 = molecular target: T3, MCH-2 (Homo sapiens, UniProt P55212); experiment: Ki determination, ICE/ced-3 family protease fluorescence assay (MCH-2)
T3 sequence (P55212 24-179 limits assumed): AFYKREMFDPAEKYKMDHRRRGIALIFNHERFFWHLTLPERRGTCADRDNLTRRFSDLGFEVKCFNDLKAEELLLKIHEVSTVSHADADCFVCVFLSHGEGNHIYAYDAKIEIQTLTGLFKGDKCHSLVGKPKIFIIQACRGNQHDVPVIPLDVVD
T3 sequence (P55212 194-293 limits assumed): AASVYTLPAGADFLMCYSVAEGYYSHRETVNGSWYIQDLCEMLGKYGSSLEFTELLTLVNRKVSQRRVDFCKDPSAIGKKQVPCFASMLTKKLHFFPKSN
Experimental: as §1, §2, §3, §4, §5, §6

## C[C@H](NC(=O)C(=O)Nc1ccccc1C(C)(C)C)C(=O)N[C@@H](CC(=O)NS(C)(=O)=O)C(=O)COc1c(F)c(F)cc(F)c1F [compound 1]
MCH-5
  Ki: 11 nM
mICE
  Ki: 4 nM
CPP32
  Ki: 856 nM
MCH-2
  Ki: 0.681 µM

## CC(NC(=O)C(NC(=O)OCc1ccccc1)C(C)C)C(=O)NC(CC(=O)O)C(=O)CF (stereo not drawn) [reference, Cbz-ValAlaAsp-CH2F] (Cbz-Val-Ala-Asp-CH2F; configuration not given here)
MCH-5
  Ki: 18 nM
mICE
  Ki: 15 nM
CPP32
  Ki: 820 nM
MCH-2
  Ki: 0.594 µM
